The target in assay [1] is Mitogen-activated protein kinase kinase kinase 4 (Homo sapiens) (UniProt Q9Y6R4). As to the kind of experiment: Selectivity interaction (Kinase panel (KiNativ target engagement assay in Jurkat cells)) EUB0001635a MAP3K4. Type of assay: cell-based. Particulars: Selectivity number of off-targets 0.0, Selectivity number of targets 233.0, Source Knowledge https://www.sciencedirect.com/science/article/pii/S2451945619300674?via%3Dihub, at 1 µM.

For assay [2], the target named is Serine/threonine-protein kinase PAK 2 (Homo sapiens) (UniProt Q13177). As to the kind of experiment: Selectivity interaction (KinomeScan (DiscoverX)) EUB0000666a PAK2. Particulars: at 10 µM.
In assay [3] the test system is Tyrosine-protein kinase ABL1 (Homo sapiens), P00519 [Q252H]. As to the kind of experiment: Selectivity interaction (KinomeScan (DiscoverX)) EUB0000655a ABL1. Particulars: at 10 µM.
For assay [4], the target named is Tyrosine-protein kinase ABL2 (Homo sapiens, UniProt P42684). As to the kind of experiment: Selectivity interaction (ActivX KiNativ screen (kinase selectivity in THP-1 cell lysates)) EUB0000639a ABL2. Type of assay: subcellular. Particulars: lysate, at 1 µM.
Assay [5] has as its system T1, Receptor-type tyrosine-protein kinase FLT3 (Homo sapiens), P36888 [D835Y].
T1 sequence (whole entry): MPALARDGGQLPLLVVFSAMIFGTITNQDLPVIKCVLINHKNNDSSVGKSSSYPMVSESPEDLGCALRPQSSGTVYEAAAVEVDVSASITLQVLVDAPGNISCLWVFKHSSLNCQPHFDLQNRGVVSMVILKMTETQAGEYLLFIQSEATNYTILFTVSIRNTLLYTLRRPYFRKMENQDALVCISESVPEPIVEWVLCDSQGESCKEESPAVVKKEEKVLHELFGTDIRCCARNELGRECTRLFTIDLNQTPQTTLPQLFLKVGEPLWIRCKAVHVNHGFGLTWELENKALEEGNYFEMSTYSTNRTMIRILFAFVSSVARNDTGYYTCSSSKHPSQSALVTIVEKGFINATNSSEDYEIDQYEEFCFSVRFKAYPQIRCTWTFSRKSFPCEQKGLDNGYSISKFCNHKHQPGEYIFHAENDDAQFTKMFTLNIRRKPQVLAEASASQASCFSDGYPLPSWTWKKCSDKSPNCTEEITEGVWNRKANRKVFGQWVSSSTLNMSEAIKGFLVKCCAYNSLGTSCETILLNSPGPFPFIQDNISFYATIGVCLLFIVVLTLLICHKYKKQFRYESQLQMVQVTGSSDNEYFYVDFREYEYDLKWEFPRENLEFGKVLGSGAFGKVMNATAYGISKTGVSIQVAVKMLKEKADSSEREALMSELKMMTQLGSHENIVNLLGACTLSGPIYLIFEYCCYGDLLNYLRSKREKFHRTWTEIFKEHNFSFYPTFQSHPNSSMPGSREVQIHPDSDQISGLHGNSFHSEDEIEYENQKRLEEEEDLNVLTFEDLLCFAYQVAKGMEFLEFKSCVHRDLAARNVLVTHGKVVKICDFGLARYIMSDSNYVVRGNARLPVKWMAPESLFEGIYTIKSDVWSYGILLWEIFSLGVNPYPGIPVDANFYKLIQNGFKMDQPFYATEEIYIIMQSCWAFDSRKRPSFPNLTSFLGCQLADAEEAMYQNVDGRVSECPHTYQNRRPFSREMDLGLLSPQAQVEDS
Particulars: at 10 µM.

The target in assay [6] is Myosin light chain kinase, smooth muscle (Homo sapiens, UniProt Q15746). As to the kind of experiment: Selectivity interaction (KinomeScan (DiscoverX)) EUB0000695a MYLK. The conditions noted are these: at 100 nM.
Assay [7] deals with SRSF protein kinase 2 (Homo sapiens) (UniProt P78362). As to the kind of experiment: Selectivity interaction (ProQinase) EUB0000171b SRPK2.
In assay [8] the target is T2, Serine/threonine-protein kinase DCLK2 (Homo sapiens) (UniProt Q8N568).
T2 sequence (whole entry): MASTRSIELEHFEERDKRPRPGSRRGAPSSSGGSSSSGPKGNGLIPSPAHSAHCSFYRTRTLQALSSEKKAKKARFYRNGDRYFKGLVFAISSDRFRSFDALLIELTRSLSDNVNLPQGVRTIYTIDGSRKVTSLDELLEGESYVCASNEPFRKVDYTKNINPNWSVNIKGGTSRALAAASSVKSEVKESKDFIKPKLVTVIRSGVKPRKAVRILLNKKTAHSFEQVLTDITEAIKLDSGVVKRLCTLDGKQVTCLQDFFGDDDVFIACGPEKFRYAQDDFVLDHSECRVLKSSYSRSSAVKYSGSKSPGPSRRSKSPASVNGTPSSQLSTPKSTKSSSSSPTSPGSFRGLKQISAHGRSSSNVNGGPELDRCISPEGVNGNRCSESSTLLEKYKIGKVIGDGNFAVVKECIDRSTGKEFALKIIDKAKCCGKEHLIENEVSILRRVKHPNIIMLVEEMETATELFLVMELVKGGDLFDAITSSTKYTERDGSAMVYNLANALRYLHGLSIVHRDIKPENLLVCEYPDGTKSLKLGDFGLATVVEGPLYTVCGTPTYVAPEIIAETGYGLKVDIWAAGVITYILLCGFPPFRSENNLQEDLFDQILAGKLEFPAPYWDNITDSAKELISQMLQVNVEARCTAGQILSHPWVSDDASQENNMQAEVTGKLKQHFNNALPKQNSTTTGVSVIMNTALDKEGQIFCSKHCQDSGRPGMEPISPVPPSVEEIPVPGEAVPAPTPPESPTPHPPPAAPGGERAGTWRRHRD
As to the kind of experiment: Selectivity interaction (KinomeScan (DiscoverX)) EUB0000618a DCLK2. The conditions noted are these: at 10 µM.

Sequence of SRSF protein kinase 2 (Homo sapiens) (P78362 whole entry, looked up): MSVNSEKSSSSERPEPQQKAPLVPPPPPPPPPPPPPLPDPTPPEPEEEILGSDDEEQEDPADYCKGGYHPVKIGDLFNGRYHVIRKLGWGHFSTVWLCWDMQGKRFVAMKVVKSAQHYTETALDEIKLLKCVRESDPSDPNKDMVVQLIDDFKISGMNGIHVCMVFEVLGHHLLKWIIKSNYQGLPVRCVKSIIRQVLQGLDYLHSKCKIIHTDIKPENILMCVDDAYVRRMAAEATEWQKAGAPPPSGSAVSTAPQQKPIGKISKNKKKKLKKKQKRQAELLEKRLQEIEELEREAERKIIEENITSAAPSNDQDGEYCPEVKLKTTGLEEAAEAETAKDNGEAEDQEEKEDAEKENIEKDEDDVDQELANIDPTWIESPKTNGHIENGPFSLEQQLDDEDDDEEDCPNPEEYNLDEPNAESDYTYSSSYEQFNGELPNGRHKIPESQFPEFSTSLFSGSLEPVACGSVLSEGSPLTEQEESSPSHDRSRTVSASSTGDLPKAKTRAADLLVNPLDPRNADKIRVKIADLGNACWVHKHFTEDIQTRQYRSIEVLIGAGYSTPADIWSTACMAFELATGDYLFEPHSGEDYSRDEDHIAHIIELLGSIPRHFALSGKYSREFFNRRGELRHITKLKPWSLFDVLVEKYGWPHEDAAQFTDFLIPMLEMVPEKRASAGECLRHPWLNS
Sequence of Tyrosine-protein kinase ABL2 (P42684 whole entry): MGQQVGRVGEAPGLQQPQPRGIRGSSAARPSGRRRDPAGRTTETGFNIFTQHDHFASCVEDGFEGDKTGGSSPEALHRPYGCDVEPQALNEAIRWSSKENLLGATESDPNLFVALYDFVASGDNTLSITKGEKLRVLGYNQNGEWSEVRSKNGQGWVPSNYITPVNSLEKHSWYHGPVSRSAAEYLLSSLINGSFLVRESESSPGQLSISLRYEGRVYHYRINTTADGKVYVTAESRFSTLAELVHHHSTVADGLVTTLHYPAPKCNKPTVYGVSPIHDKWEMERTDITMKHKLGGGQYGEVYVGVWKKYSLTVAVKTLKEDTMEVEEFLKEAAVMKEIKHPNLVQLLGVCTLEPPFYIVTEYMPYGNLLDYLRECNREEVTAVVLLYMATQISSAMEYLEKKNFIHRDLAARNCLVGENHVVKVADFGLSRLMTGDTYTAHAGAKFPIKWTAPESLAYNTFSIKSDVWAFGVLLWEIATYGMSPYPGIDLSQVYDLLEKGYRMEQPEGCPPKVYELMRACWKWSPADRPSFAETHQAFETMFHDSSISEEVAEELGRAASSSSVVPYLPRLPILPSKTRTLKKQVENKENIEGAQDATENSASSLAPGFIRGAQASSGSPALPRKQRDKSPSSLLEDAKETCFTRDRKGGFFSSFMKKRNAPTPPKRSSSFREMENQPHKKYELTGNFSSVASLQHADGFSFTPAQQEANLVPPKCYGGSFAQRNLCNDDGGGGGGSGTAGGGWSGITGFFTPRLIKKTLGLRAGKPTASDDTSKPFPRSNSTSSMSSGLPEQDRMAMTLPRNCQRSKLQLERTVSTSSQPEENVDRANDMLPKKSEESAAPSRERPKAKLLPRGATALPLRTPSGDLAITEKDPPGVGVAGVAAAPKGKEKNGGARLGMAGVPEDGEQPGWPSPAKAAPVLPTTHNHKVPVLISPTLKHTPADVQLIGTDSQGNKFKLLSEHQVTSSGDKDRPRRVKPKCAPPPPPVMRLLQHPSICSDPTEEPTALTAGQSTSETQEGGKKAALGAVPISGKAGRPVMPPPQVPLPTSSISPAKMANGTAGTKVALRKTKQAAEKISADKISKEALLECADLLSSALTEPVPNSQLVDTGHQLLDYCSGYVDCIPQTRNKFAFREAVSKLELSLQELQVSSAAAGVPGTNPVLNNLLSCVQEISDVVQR
Sequence of Mitogen-activated protein kinase kinase kinase 4 (Homo sapiens) (Q9Y6R4 whole entry): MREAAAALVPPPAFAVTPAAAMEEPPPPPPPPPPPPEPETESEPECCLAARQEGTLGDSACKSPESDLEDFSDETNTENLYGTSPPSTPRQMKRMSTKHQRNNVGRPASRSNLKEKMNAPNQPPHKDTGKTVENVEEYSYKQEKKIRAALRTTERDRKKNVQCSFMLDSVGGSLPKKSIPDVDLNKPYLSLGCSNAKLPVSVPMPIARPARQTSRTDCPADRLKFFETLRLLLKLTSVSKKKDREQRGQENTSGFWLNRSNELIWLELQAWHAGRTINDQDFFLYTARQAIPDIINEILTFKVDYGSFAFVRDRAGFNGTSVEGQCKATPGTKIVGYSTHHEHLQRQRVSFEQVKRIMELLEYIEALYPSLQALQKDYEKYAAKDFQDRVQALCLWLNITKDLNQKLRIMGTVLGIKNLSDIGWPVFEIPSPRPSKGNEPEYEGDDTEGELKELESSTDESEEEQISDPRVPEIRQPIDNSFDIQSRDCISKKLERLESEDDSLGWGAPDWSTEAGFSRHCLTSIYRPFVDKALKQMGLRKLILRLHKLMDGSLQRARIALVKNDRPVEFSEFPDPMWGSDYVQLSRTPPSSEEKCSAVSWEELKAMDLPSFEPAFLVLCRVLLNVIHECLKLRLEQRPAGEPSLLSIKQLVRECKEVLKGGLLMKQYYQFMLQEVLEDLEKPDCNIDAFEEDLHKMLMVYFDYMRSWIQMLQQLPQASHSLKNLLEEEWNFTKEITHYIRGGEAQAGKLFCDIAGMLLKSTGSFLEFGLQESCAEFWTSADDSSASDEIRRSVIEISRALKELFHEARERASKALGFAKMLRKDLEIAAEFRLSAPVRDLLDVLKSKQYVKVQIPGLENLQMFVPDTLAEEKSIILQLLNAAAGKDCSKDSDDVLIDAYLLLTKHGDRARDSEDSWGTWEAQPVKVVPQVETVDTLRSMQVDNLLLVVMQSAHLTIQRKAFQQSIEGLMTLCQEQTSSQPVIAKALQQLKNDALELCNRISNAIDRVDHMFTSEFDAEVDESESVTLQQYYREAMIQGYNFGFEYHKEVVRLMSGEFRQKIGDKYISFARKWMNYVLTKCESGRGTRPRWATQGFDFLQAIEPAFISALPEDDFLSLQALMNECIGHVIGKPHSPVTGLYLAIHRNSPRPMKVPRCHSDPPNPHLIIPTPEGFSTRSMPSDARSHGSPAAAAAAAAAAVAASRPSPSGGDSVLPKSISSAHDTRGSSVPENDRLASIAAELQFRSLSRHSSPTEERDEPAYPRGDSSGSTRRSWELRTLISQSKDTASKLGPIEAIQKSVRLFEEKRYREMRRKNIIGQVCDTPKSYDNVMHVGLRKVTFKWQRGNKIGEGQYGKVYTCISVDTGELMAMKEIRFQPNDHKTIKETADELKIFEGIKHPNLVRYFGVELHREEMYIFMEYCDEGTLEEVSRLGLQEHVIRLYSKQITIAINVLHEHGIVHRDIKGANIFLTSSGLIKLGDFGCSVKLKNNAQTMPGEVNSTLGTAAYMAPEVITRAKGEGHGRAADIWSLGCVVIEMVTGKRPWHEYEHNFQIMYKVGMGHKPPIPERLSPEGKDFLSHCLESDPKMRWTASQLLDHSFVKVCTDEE
Sequence of Serine/threonine-protein kinase PAK 2 (Homo sapiens) (Q13177 whole entry): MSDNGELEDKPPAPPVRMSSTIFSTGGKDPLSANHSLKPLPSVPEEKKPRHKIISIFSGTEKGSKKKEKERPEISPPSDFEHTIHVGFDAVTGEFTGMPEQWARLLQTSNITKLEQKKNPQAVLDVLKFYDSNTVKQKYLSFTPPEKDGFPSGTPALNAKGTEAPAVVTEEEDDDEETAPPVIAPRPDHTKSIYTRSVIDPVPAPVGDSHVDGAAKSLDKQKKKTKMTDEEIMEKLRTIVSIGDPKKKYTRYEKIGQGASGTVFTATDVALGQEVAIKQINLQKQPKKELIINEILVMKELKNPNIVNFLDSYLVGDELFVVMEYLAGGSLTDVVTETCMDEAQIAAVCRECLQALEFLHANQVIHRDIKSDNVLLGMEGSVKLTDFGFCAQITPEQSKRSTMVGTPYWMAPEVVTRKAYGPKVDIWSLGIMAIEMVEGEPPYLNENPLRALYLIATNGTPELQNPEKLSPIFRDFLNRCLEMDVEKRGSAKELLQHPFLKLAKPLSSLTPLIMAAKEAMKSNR

With `C=CC(=O)Nc1ccc(C(=O)Nc2[nH]nc3c2CN(C(=O)N[C@H](CN(C)C)c2ccccc2)C3(C)C)cc1`, the % of engagement in assay [1] was -2.6%.
Molecule `O=C(NOC[C@H](O)CO)c1ccc(F)c(F)c1Nc1ccc(I)cc1F` showed a % of control in assay [2] of 93%.
As for `CN(C)CCOc1ccc(-c2nc(-c3ccncc3)c(-c3ccc4c(c3)CC/C4=N\O)[nH]2)cc1`, the % of control in assay [3] came out at 3.8%.
Turning to `CC[C@@H]1[C@H](F)C(=O)N[C@@H]1COc1nccc2cc(C(N)=O)c(OC)cc12` [ZIMLOVISERTIB], the % of inhibition in assay [4] is -13.2%.
`CCN(CC)CCCCNc1ncc2cc(-c3cc(OC)cc(OC)c3)c(NC(=O)NC(C)(C)C)nc2n1` yielded a % of control in assay [5] of 100%.
`Cc1cc(F)c(C(=O)Nc2cccc(-c3nncn3C(C)C)n2)cc1-n1cnc(C2CC2)c1`: the % of control in assay [6] was found to be 100%.
Consider `C=CC(=O)Nc1cccc(C(=O)Nc2ccc(Nc3cc(-c4[nH]c(SC)nc4C)ccn3)cc2)c1`, for which the % of control in assay [7] (at 1 µM) amounted to 82%; in assay [7] (at 5 µM) it was 75%.
In the case of `O[C@H]1CC[C@H](Nc2ncc3nc(Nc4c(F)cc(F)cc4F)n([C@H]4CCOC4)c3n2)CC1`, the % of control in assay [8] is 100%.

For the origin of these results see ChEMBL document CHEMBL5465560, “Selectivity Literature for EUbOPEN Chemogenomic Library” (2024).
